Results reported in patent US10280167B2, “Purine derivatives for the treatment of viral infections” (JANSSEN SCIENCES IRELAND UC, priority 2011, dated 2019).
pEC50: −log10 of the molar value.

Key:
Assay type in all cases: cell-based
[1] = tested on: human TLR7 dIRR2 mutant; experiment: Reporter assay for TLR7 activity, HEK293 transfected with mutant TLR7 (dIRR2 deletion) and NFκB-luc; conditions: lowest effective concentration; 24 h transfection
Method: (§1) Reporter Assays for Assessment of TLR7 Activity (24 h)
(§2) The ability of compounds to activate human TLR7 was assessed in a cellular reporter assay using HEK293 cells transiently transfected with a TLR7 or TLR8 expression vector and NFκB-luc reporter construct. In one instance the TLR expression construct expresses the respective wild type sequence or a mutant sequence comprising a deletion in the second leucine-rich repeat (dIRR2) of the TLR.
(§3) Briefly, HEK293 cells were grown in culture medium (DMEM supplemented with 10% FCS and 2 mM Glutamine). For transfection of cells in 10 cm dishes, cells were detached with Trypsin-EDTA, transfected with a mix of CMV-TLR7 or TLR8 plasmid (750 ng), NFκB-luc plasmid (375 ng) and a transfection reagent and incubated 24 hours or 48 hours respectively at 37° C. in a humidified 5% CO2 atmosphere. Transfected cells were then detached with Trypsin-EDTA, washed in PBS and resuspended in medium to a density of 1.67×10^5 cells/mL. Thirty microliters of cells were then dispensed into each well in 384-well plates, where 10 μL of compound in 4% DMSO was already present. Following 6 hours incubation at 37° C., 5% CO2, the luciferase activity was determined by adding 15 μl of Steady Lite Plus substrate (Perkin Elmer) to each well and readout performed on a ViewLux ultraHTS microplate imager (Perkin Elmer). Dose response curves were generated from measurements performed in quadruplicates. Lowest effective concentrations (LEC) values, defined as the concentration that induces an effect which is at least two fold above the standard deviation of the assay, were determined for each compound. Compound toxicity was determined in parallel using a similar dilution series of compound with 30 μL per well of cells transfected with the CMV-TLR7 construct alone (1.67×10^5 cells/mL), in 384-well plates. Cell viability was measured after 6 hours incubation at 37° C., 5% CO2 by adding 15 μL of ATP lite (Perkin Elmer) per well and reading on a ViewLux ultraHTS microplate imager (Perkin Elmer). Data was reported as CC50.

[2] = tested on: Huh-7 luc/neo HCV replicon cells with conditioned media from PBMC; experiment: Interferon production in human PBMC (PBMC-HUH7_EC50), HCV replicon readout with conditioned media; conditions: Homo sapiens, Huh-7; concentration applied to PBMCs giving 50% reduction of replicon luciferase activity
Method: Measurement of Interferon Production in Human PBMC (PBMC-HUH7_EC50)
Activation of human TLR7 results in robust production of interferon by plasmacytoid dendritic cells present in human blood. The potential of compounds to induce interferon was evaluated by looking at the antiviral activity in the HCV replicon system upon incubation with conditioned media from peripheral blood mononuclear cells (PBMC). The HCV replicon assay is based on a bicistronic expression construct, as described by Lohmann et al. (Science (1999) 285: 110-113; Journal of Virology (2003) 77: 3007-15 3019) with modifications described by Krieger et al. (Journal of Virology (2001) 75: 4614-4624). The assay utilized the stably transfected cell line Huh-7 luc/neo harboring an RNA encoding a bicistronic expression construct comprising the wild type NS3-NS5B regions of HCV type 1b translated from an Internal Ribosome Entry Site (IRES) from encephalomyocarditis virus (EMCV), preceded by a reporter gene (Firefly-luciferase) and a selectable marker gene (neoR, neomycine phosphotransferase). The construct is flanked by 5′ and 3′ NTRs (non-translated regions) from HCV type 1b. Continued culture of the replicon cells in the presence of G418 (neoR) is dependent on the replication of the HCV RNA. The stably transfected replicon cells that replicate HCV RNA autonomously and to high levels, encoding inter alia luciferase, were used for profiling of the conditioned cell culture media. Briefly, PBMCs were prepared from buffy coats of at least two donors using a standard Ficoll centrifugation protocol. Isolated PBMCs were resuspended in RPMI medium supplemented with 10% human AB serum and 2×10^5 cells/well were dispensed into 384-well plates containing compounds (70 μL total volume). After overnight incubation, […] was transferred to 384-well plates containing 2.2×10^3 replicon cells/well in 30 μL (plated the day before). Following 24 hours of incubation, replication was measured by assaying luciferase activity using 40 μL/well Steady Lite Plus substrate (Perkin Elmer) and measured with ViewLux ultraHTS microplate imager (Perkin Elmer). The inhibitory activity of each compound on the Huh7-luc/neo cells were reported as EC50 values, defined as the compound concentration applied to the PBMCs resulting in a 50% reduction of luciferase activity which in turn indicates the degree of replication of the replicon RNA on transfer of a defined amount of PBMC culture medium. Recombinant interferon α-2a (Roferon-A) was used as a standard control compound.

[3] = biological target: T1, human TLR7 (Homo sapiens (Human), UniProt Q9NYK1); experiment: Reporter assay for TLR7 activity, HEK293 transiently transfected with wild type TLR7 and NFκB-luc; conditions: lowest effective concentration; 24 h transfection
T1 sequence (Q9NYK1 27-1049): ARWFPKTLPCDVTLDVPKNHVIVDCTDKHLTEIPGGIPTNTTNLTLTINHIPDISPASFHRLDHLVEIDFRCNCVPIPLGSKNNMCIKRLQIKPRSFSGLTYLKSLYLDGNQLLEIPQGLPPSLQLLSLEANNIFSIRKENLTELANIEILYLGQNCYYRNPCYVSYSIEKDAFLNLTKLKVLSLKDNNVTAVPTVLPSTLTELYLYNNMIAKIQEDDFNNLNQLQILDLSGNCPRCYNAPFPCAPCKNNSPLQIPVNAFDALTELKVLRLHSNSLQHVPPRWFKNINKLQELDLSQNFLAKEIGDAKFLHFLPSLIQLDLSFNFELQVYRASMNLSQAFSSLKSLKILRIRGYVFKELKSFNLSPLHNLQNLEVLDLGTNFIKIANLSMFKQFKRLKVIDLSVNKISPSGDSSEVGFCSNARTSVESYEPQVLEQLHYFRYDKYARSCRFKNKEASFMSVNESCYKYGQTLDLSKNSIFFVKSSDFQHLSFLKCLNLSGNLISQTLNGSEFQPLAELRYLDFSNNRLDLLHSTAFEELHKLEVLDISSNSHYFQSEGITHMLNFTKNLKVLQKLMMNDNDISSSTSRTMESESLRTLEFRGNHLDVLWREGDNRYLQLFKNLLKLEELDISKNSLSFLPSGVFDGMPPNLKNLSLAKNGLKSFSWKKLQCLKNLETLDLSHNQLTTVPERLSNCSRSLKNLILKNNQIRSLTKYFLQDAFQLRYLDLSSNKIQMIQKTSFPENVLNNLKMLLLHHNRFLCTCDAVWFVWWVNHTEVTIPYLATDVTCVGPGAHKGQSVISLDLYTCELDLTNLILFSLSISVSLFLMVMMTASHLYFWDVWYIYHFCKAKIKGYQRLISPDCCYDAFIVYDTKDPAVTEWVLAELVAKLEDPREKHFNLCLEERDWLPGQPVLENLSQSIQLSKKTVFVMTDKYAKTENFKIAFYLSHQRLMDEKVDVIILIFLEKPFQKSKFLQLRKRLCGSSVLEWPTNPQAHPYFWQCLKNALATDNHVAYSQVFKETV
Method: as §1, §2, §3

[4] = tested on: HEK293 NFκB-luc; experiment: Reporter assay HEK293 NFκB-luc; conditions: greater than the highest tested concentration
[5] = tested on: human TLR7 dIRR2 mutant; experiment: Reporter assay for TLR7 activity, HEK293 transfected with mutant TLR7 (dIRR2 deletion) and NFκB-luc; conditions: lowest effective concentration; 48 h transfection
[6] = tested on: TLR8; experiment: Reporter assay HEK293 TLR8-NFκB-luc; conditions: greater than the highest tested concentration
Method: as §2
Briefly, HEK293 cells were grown in culture medium (DMEM supplemented with 10% FCS and 2 mM Glutamine). […] Following 6 hours incubation at 37° C., 5% CO2, the luciferase activity was determined by adding 15 μl of Steady Lite Plus substrate (Perkin Elmer) to each well and readout performed on a ViewLux ultraHTS microplate imager (Perkin Elmer). […] Lowest effective concentrations (LEC) values, defined as the concentration that induces an effect which is at least two fold above the standard deviation of the assay, were determined for each compound. Compound toxicity was determined in parallel using a similar dilution series of compound with 30 μL per well of cells transfected with the CMV-TLR7 construct alone (1.67×10^5 cells/mL), in 384-well plates. Cell viability was measured after 6 hours incubation at 37° C., 5% CO2 by adding 15 μL of ATP lite (Perkin Elmer) per well and reading on a ViewLux ultraHTS microplate imager (Perkin Elmer). […]

[7] = tested on: HEK-ISRE-luc cells with conditioned media from PBMC; experiment: Interferon production in human PBMC (PBMC HEK-ISRE-luc LEC); conditions: Homo sapiens, PBMC; lowest effective concentration; read-out: PBMC HEK-ISRE-luc (LEC)
Method: Measurement of Interferon Production in Human PBMC (PBMC HEK-ISRE-Luc LEC)
Activation of human TLR7 results in robust production of interferon by plasmacytoid dendritic cells present in human blood. The potential of compounds to induce interferon was evaluated by determination of interferon in the conditioned media from peripheral blood mononuclear cells (PBMC). The presence of interferon in the samples was determined, using an interferon reporter cell line stably expressing an interferon-stimulated responsive elements (ISRE)-luc reporter construct. The ISRE element with sequence GAAACTGAAACT (SEQ ID NO: 1) is highly responsive to the STAT1-STAT2-IRF9 transcription factor, which becomes activated upon binding of IFN-I to the IFN receptor. Briefly, PBMCs were prepared from buffy coats of at least two donors using a standard Ficoll centrifugation protocol. Isolated PBMCs were resuspended in RPMI medium supplemented with 10% human AB serum and 2×10^5 cells/well were dispensed into 384-well plates containing compounds (70 μL total volume). After overnight incubation of the PBMCs with the compounds, 10 μL of supernatant was transferred to 384-well plates containing 5×10^3 HEK-ISRE-luc cells/well in 30 μL (plated the day before). Following 24 hours of incubation, activation of the ISRE elements was measured by assaying luciferase activity using 40 μL/well Steady Lite Plus substrate (Perkin Elmer) and measured with ViewLux ultraHTS microplate imager (Perkin Elmer). The stimulating activity of each compound on the HEK-ISRE-luc cells was reported as LEC. The LEC in turn indicates the degree of ISRE activation on transfer of a defined amount of PBMC culture medium.
Recombinant interferon alfa-2a (Roferon-A) was used as a standard control compound.

[8] = biological target: T1, human TLR7; experiment: Reporter assay for TLR7 activity, HEK293 transiently transfected with wild type TLR7 and NFκB-luc; conditions: lowest effective concentration; 48 h transfection

Row | Compound | TLR7-dIRR2_LEC 24 h [1] [µM] | pEC50 [2] | TLR7-wt_LEC 24 h [3] [µM] | LEC on HEK293 NFκB-luc [4] [µM] | TLR7-dIRR2_LEC 48 h [5] [µM] | LEC on HEK293 TLR8-NFκB-luc [6] [µM] | minimal effective concentration [7] [µM] | TLR7-wt_LEC 48 h [8] [µM]
1 | Nc1nc(-c2nc(C3CCCC3)c[nH]2)nc2c1[nH]c(=O)n2Cc1ccccc1 [Compound 3] | 7.67 | 4.85 | >24.59 |  |  |  |  | 
2 | CCc1[nH]c(-c2nc(N)c3[nH]c(=O)n(Cc4ccccc4)c3n2)nc1C1CC1 [Compound 6] | 0.66 | 7.28 |  | > 10 | 0.34 | > 10 | 0.04 | 6.32
3 | Nc1nc(-c2ccc[nH]2)nc2c1[nH]c(=O)n2Cc1ccccc1 [Compound 18] | 3.23 | 5.59 | >24.59 |  | 3.81 |  |  | 20.31
4 | Nc1nc(-c2nc(-c3ccccc3)c[nH]2)nc2c1[nH]c(=O)n2Cc1ccccc1 [Compound 2] | 1.2 | 6.27 | 4.72 |  |  |  |  | 
5 | Nc1nc(-c2nc(C3CC3)c[nH]2)nc2c1[nH]c(=O)n2CC1CCOCC1 [Compound 10] | 18.93 | 6.14 |  |  | 10.13 |  | 0.44 | >25
6 | Nc1nc(-c2ccco2)nc2c1[nH]c(=O)n2Cc1ccccc1 [Compound 20] | 0.5 | 6.17 |  |  | 0.5 |  |  | 6.34
7 | Nc1nc(-c2cn[nH]c2)nc2c1[nH]c(=O)n2Cc1ccccc1 [Compound 19] | 13.31 | 4.91 | >24.59 |  | 16.6 |  |  | >25
8 | COCCn1ccnc1-c1nc(N)c2[nH]c(=O)n(Cc3ccccc3)c2n1 [Compound 11] |  | 6.48 |  |  | 0.19 |  | 0.32 | 5.36
9 | Nc1nc(-c2nc(C3CC3)c[nH]2)nc2c1[nH]c(=O)n2Cc1ccccc1 [Compound 1] | 0.33 | 7.09 |  |  | 0.18 |  | 0.064 | 8.25
10 | Cn1ccnc1-c1nc(N)c2[nH]c(=O)n(Cc3ccccc3)c2n1 [Compound 12] |  | 6.23 |  |  | 0.3 |  | 0.34 | 8.08
11 | CC(C)(C)c1c[nH]c(-c2nc(N)c3[nH]c(=O)n(Cc4ccccc4)c3n2)n1 [Compound 28] |  | < 4.62 |  |  | 8.77 |  | > 23.8 | >25
12 | Nc1nc(-c2ncc[nH]2)nc2c1[nH]c(=O)n2Cc1ccccc1 [Compound 4] | 0.077 | 6.80 |  |  | 0.04 |  | 0.12 | 1.23
13 | Nc1nc(-c2ncc[nH]2)nc2c1[nH]c(=O)n2Cc1ccc(OCC(=O)O)nc1 [Compound 58] |  | 5.56 |  |  | 0.06 |  | 2.69 | 0.99
14 | Nc1nc(-c2cncnc2)nc2c1[nH]c(=O)n2Cc1ccccc1 [Compound 15] | 10.57 | 4.77 | >24.59 |  | 9.75 |  |  | >25
15 | Cc1ccc(Cn2c(=O)[nH]c3c(N)nc(-c4nc(C5CC5)c[nH]4)nc32)cn1 [Compound 26] |  | 8.30 |  |  | 0.21 |  | 0.006 | 2.42
16 | Nc1nc(-n2cccn2)nc2c1[nH]c(=O)n2Cc1ccccc1 [Compound 36] |  | 7.33 |  |  | 0.017 |  | 0.033 | 0.22
17 | Cc1noc(-c2nc(N)c3[nH]c(=O)n(Cc4ccccc4)c3n2)n1 [Compound 33] |  | 6.09 |  |  | 0.98 |  | 0.52 | 21.66
18 | CN(C)CCOc1ccc(Cn2c(=O)[nH]c3c(N)nc(-c4nc(C5CC5)c[nH]4)nc32)cn1 [Compound 54] |  | 7.30 |  |  | 5.65 |  | 0.07 | 16.1
19 | Cc1[nH]c(-c2nc(N)c3[nH]c(=O)n(Cc4ccccc4)c3n2)nc1C1CC1 [Compound 5] | 2.2 | 6.70 |  |  | 1.13 |  | 0.13 | 21.47
